Values after ≈ are worked out from the molar mass of the structure shown. Like-named read-outs stand apart in the source and are kept apart here.
Tests used:
[1] = Oral absorbability in dogs (drug concentration in plasma); format: in vivo, Male beagles (dog); settings: dog
Protocol: Male beagles for experimental use were fasted one night before the administration of the test drugs. The drugs were suspended in a 0.1% TWEEN 80--0.1M NaCl--50 mM phosphate buffer solution for administration. All the drugs were forcefully administered in an amount of 50 mg/kg using an oral probe for dogs. Three animals were used for each test group. Blood samples were taken 9 times; 0.25, 0.5, 1, 1.5, 2, 4, 6, 9 and 24 hours after the administration. Blood samples of 5 ml were taken at each sampling time using a heparin-treated disposable injection syringe. Each blood was centrifuged at 3000 rpm for 15 minutes to obtain plasma. Drug concentrations in plasma were measured using HPLC and then calculated from a calibration curve for a standard sample.

[2] = Oral absorbability test in mice (drug concentration in plasma); set-up: species or system 7-Week-old female CDF1 mice; settings: mouse, in vivo
Protocol: 7-Week-old female CDF1 mice were fasted one night before the administration of the test drugs. The drugs were suspended in an aqueous 0.1% TWEEN 80 solution for administration and were forcefully administered in an amount of 100 mg/kg (for the compound No. 2 of Example 1-(c)) and 109 mg/kg (for the compound No. 4 of Comparative Example 1) so as to get the equivalent molarity using a probe for oral administration. Three animals were used for each test group. Blood samples were taken 4 times; 0.5, 1.0, 2.0 and 4.0 hours after the administration. Blood samples were taken by cardiocentesis under anesthesia with chloroform using a heparin-treated disposable injection syringe, Each blood was centrifuged at 4° C. at 6000 rpm for 10 minutes to obtain plasma. Drug concentrations in plasma were measured using HPLC and then calculated from a calibration curve for a standard sample, Results are shown in the following Tables.

[3] = physchem; format: physicochemical; settings: water
Protocol: Solubility in water was measured according to the Pharmacopoeia Japan.

[4] = tested on: Vincristine-resistant mouse leukemia cells, P388/VCR; assay: Carcinostatic-effect-stimulating activity (IC50 of vincristine on vincristine-resistant cells); format: cell-based; settings: 72 h, read-out: IC50 of vincristine
Protocol: Carcinostatic-effect-stimulating activity
Vincristine-resistant mouse leukemia cells, P388/VCR, were suspended at a concentration of 2×10^4 cells/ml in an RPMI-1640 medium solution containing […]. 2 ml of the cancer cell suspension per tube (12×75 mm) were inoculated and incubated at 37° C. in a 5% CO2 atmosphere. After 6 hours, vincristine and the compound No. 2 of Example 1-(c) at a concentration of 0.3, 1 or 3 microgram/ml and the incubation was continued at 37° C. under a 5% CO2 atmosphere for 72 hours. The cell culture was added to 9.5 ml of ISOTON II, the number of cells was counted using a call counter and then 50% growth inhibiting concentrations of vincristine IC50 (ng/ml) were calculated.

Structure (SMILES): O=C(C(c1ccccc1)c1ccccc1)N1CCN(CC(O)COc2cccc3ncccc23)CC1.O=C(O)/C=C/C(=O)O (stereo not drawn) [compound No. 2, 5-[3-{4-(2,2-diphenylacetyl)piperazin-1-yl}-2-hydroxypropoxy]quinoline fumarate]
- concentration at 0.5 h ([1]; plasma, male beagles, oral 50 mg/kg, 0.5 hr, read-out: Concentration in plasma, Average): 14700 ng/mL
- concentration at 1 h ([1]; plasma, male beagles, oral 50 mg/kg, 1 hr, read-out: Concentration in plasma, Average): 13200 ng/mL
- concentration at 1.5 h ([1]; plasma, male beagles, oral 50 mg/kg, 1.5 hr, read-out: Concentration in plasma, Average): 12700 ng/mL
- concentration at 2 h ([1]; plasma, male beagles, oral 50 mg/kg, 2 hr, read-out: Concentration in plasma, Average): 10500 ng/mL
- concentration at 4 h ([1]; plasma, male beagles, oral 50 mg/kg, 4 hr, read-out: Concentration in plasma, Average): 6760 ng/mL
- concentration at 6 h ([1]; plasma, male beagles, oral 50 mg/kg, 6 hr, read-out: Concentration in plasma, Average): 3700 ng/mL
- concentration at 9 h ([1]; plasma, male beagles, oral 50 mg/kg, 9 hr, read-out: Concentration in plasma, Average): 1210 ng/mL
- concentration at 24 h ([1]; plasma, male beagles, oral 50 mg/kg, 24 hr): 30 ng/mL
- concentration at 0.5 h ([2]; po, 100 mg/kg): 18000 ng/mL
- concentration at 1 h ([2]; po, 100 mg/kg): 21800 ng/mL
- concentration at 2 h ([2]; po, 100 mg/kg): 16000 ng/mL
- concentration at 4 h ([2]; po, 100 mg/kg): 13700 ng/mL
- solubility [3]: 1400 µg/mL
- IC50 ([4]; vincristine with compound at 0.3 microgram/ml): 0.0569 µg/mL
- IC50 ([4]; vincristine with compound at 1 microgram/ml): 0.022 µg/mL
- IC50 ([4]; vincristine with compound at 3 microgram/ml): 0.00412 µg/mL

Structure (SMILES): O=C(C(c1ccccc1)c1ccccc1)N1CCN(CC(O)COc2cccc3ncccc23)CC1.O=C(O)CC(O)C(=O)O (stereo not drawn) [compound No. 4, 5-[3-{4-(2,2-diphenylacetyl)piperazin-1-yl)-2-hydroxypropoxy]quinoline malate]
- concentration at 0.5 h ([2]; female CDF1 mice, oral 109 mg/kg (equivalent molarity), 0.5 hr, read-out: Concentration in plasma, Average of 3 mice): 14300 ng/mL
- concentration at 1 h ([2]; female CDF1 mice, oral 109 mg/kg (equivalent molarity), 1.0 hr, read-out: Concentration in plasma, Average of 3 mice): 11400 ng/mL
- concentration at 2 h ([2]; female CDF1 mice, oral 109 mg/kg (equivalent molarity), 2.0 hr, read-out: Concentration in plasma, Average of 3 mice): 11900 ng/mL
- concentration at 4 h ([2]; female CDF1 mice, oral 109 mg/kg (equivalent molarity), 4.0 hr, read-out: Concentration in plasma, Average of 3 mice): 5990 ng/mL

Structure (SMILES): CC[C@]1(O)C[C@H]2CN(CCc3c([nH]c4ccccc34)[C@@](C(=O)OC)(c3cc4c(cc3OC)N(C=O)[C@H]3[C@@](O)(C(=O)OC)[C@H](OC(C)=O)[C@]5(CC)C=CCN6CC[C@]43[C@@H]65)C2)C1 [vincristine, reference compound]
- IC50 [4]: 0.142 µg/mL (≈ 0.172 µM)

Structure (SMILES): O=C(C(c1ccccc1)c1ccccc1)N1CCN(CC(O)COc2cccc3ncccc23)CC1 (stereo not drawn) [compound No. 1, 5-[3-{4-(2,2diphenylacetyl)piperazin-1-yl}-2-hydroxypropoxy]quinoline]
- concentration at 0.25 h ([1]; in vivo, po, 50 mg/kg): 2460 ng/mL
- concentration at 0.5 h ([1]; in vivo, po, 50 mg/kg): 3370 ng/mL
- concentration at 1 h ([1]; in vivo, po, 50 mg/kg): 4530 ng/mL
- concentration at 1.5 h ([1]; in vivo, po, 50 mg/kg): 4350 ng/mL
- concentration at 2 h ([1]; in vivo, po, 50 mg/kg): 4180 ng/mL
- concentration at 4 h ([1]; in vivo, po, 50 mg/kg): 2430 ng/mL
- concentration at 6 h ([1]; in vivo, po, 50 mg/kg): 1620 ng/mL
- concentration at 9 h ([1]; in vivo, po, 50 mg/kg): 440 ng/mL
- solubility [3]: < 1000 µg/mL
